The conditions of this data set: male, Sprague-Dawley, rat, in vivo. The method, then:
Analog and Its 2′,3′-Carbonate Prodrugs The liver selectivity of an antiviral nucleoside, 2′-B-C-methyladenosine, and its 2′,3′-carbonate prodrugs was evaluated in the rat by comparing liver nucleotide concentrations to levels of a major metabolite in the plasma or to concentrations of extrahepatic nucleotides. An elevated liver selectivity index is an indication of improved liver targeting of the antiviral agent and reduced exposure to other organs that may be potential targets of toxicity.
At pre-specified times of 20 min, 1, 3, 5, 8, 16, and 24 hrs post dose, liver, heart, and thigh muscle samples (˜1 g) were harvested by freeze-clamping and homogenized in 3 volumes of ice-cold acetonitrile. Following centrifugation to clarify the homogenate, aliquots of the tissue extracts were evaporated to dryness on a Savant Speed-Vac Plus (1 hr, room temperature). The resulting dried residue was reconstituted with 100 μL of mobile phase and then analyzed for nucleotides by an LC-MS/MS method as described in Example I. In addition to solid tissue, blood was collected in heparin tubes at the pre-specified times and centrifuged to obtain plasma. The plasma samples (100 μL) were extracted with 1.5 volumes of methanol and centrifuged for 20 min at top speed on a microfuge. Plasma concentrations of a major metabolite of 2′-B-C-methyladenosine, i.e., 2′-B-C-methylinosine, were determined by LC-UV as described in Example E.
The area under the curve (AUC) to the last measurable time point was calculated by trapezoidal summation of the liver, heart, and muscle concentration-time profile of total nucleotides and NTP and of the plasma concentration-time profile of the major metabolite 2′-B-C-methylinosine. The liver selectivity index was determined by two methods: (1) dividing liver NTP AUC by heart nucleotide AUC and (2) dividing liver NTP AUC by plasma 2′-3-C-methylinosine AUC.

The structures appear in SMILES notation.

`C[C@@]12OC(=O)O[C@@H]1[C@@H](CO)O[C@H]2n1cnc2c(N)ncnc21` [Compound 31.5, 2′,3′-Carbonyl-2′-C-beta-methyl-adenosine]: the “Heart Nucleotides AUC” value worked out at 23, the “Liver NTP AUC” value is reported as 2522 and the “Plasma 2′-β-C-Methylinosine AUC” value was determined as 25.
